Reference: patent US9789100B2, “Compounds as rearranged during transfection (RET) inhibitors” (GlaxoSmithKline Intellectual Property Development Limited, priority 2013, dated 2017)
Counter-ions that a name gives are not always drawn. Like-named read-outs stand apart in the source and are kept apart here.

Legend:
[1] = target: Human RET kinase cytoplasmic domain (Homo sapiens (Human), UniProt P07949); assay: RET kinase enzymatic assay; assay type: biochemical; settings: human RET kinase enzymatic assay (Table 2)
Experimental: RET Kinase Enzymatic Assay
GST-RET was purified using glutathione sepharose chromatography. The RET kinase enzymatic assay was performed in a total volume of 10 uL with increasing concentrations of RET kinase inhibitor as a singlet in a 384 well format as follows: RET inhibitor compound plates are prepared by adding 100 nL of RET inhibitor at different concentrations to a 384-well plate. 5 μL/well of a 2× enzyme mix (50 mM HEPES (4-(2-hydroxyethyl)-1-piperazineethanesulfonic acid); 1 mM CHAPS (3[(3-cholamidopropyl)dimethylammonio]-1-propanesulfonate); 0.1 mg/mL BSA (bovine serum albumin); 1 mM DTT (dithiothreitol); 0.2 nM RET kinase) was added to the 384-well plate and incubated for 30 minutes at 23° C.

[2] = test system: TT cells; assay: RET kinase cell-based proliferation assay; parameters: species or system human; settings: 192 h, read-out: RET IC50
Excerpt: RET Kinase Cell-Based Proliferation Assay

[3] = target: constitutive RET kinase phosphorylation in TT cells (Homo sapiens (Human), UniProt P07949, C634W); assay: RET kinase cell-based mechanistic assay
Experimental: RET Kinase Cell-Based Mechanistic Assay
The potency of the compound of the invention was tested for its ability to inhibit constitutive RET kinase phosphorylation in cell-based assay. […] 1.0E5 TT cells/well were plated in a 96-well cell culture plate and allowed to adhere overnight. […] IC50s were fitted using GraphPad Prism to a sigmoidal dose response.

[4] = human RET kinase cell-based proliferation assay, TT cells, eight days (Table 4)

Chain of Human RET kinase cytoplasmic domain (P07949 658-1114): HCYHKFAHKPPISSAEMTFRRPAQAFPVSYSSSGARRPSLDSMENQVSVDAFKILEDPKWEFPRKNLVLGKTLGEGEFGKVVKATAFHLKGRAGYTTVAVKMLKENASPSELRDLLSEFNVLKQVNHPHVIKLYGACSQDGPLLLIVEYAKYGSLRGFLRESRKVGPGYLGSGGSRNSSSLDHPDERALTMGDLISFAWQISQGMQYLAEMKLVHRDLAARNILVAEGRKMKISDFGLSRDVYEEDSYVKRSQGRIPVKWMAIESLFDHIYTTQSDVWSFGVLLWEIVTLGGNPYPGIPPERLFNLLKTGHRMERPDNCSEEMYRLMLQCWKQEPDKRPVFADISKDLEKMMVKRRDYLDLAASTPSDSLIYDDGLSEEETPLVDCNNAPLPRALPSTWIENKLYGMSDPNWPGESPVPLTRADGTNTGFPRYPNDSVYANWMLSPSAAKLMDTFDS
Chain of constitutive RET kinase phosphorylation in TT cells (P07949 29-1114 C634W): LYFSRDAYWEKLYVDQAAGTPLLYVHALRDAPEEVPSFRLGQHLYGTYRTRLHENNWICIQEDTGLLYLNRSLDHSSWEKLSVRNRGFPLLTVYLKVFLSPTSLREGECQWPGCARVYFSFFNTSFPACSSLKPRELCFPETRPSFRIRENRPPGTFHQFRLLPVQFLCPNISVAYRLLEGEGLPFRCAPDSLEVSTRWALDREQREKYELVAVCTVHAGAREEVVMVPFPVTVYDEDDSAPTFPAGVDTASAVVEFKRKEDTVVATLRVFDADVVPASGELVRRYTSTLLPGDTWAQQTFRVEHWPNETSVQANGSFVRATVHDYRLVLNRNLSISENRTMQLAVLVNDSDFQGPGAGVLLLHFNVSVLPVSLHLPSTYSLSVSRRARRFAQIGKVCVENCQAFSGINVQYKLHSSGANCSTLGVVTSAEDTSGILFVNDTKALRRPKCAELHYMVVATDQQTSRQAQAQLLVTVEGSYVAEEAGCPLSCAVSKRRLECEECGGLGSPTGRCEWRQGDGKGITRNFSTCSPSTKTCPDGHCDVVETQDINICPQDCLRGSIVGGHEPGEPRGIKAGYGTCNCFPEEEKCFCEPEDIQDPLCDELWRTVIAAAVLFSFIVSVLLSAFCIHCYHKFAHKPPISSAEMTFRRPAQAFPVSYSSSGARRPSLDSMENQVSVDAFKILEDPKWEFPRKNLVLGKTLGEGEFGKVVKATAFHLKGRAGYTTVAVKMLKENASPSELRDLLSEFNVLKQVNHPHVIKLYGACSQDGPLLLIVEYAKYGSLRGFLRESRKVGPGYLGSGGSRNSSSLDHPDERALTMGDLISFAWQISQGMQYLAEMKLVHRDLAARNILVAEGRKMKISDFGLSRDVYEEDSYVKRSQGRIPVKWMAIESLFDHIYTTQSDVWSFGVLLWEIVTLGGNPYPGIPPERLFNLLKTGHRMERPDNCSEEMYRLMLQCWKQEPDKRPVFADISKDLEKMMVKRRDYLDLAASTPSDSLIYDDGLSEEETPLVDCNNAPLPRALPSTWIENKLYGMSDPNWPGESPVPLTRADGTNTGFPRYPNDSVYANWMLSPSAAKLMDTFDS

IC50 [1] | SMILES | IC50 ([2]; Homo sapiens, TT) | IC50 [3] | IC50 [2, 4]
< 0.1 µM | CCOc1cc(-c2ccc(CC(=O)Nc3cnc(C(C)(C)O)c(C(F)(F)F)c3)c(F)c2)c[nH]c1=O [Example 1, 2-(4-(5-Ethoxy-6-oxo-1,6-dihydropyridin-3-yl)-2-fluorophenyl)-N-(6-(2-hydroxypropan-2-yl)-5-(trifluoromethyl)pyridin-3-yl)acetamide] | – | – | –
< 0.1 µM | CCOc1cc(-c2ccc(CC(=O)Nc3ccc(CC(C)(C)CO)c(C(F)(F)F)c3)c(F)c2)c[nH]c1=O [Example 5, 2-(4-(5-Ethoxy-6-oxo-1,6-dihydropyridin-3-yl)-2-fluorophenyl)-N-(4-(3-hydroxy-2,2-dimethylpropyl)-3-(trifluoromethyl)phenyl)acetamide] | – | – | –
< 0.1 µM | CCOc1cc(-c2ccc(CC(=O)Nc3ccc(CC(C)(C)CO)c(C(F)(F)F)c3)cc2F)c[nH]c1=O [Example 6, 2-(4-(5-Ethoxy-6-oxo-1,6-dihydropyridin-3-yl)-3-fluorophenyl)-N-(4-(3-hydroxy-2,2-dimethylpropyl)-3-(trifluoromethyl)phenyl)acetamide] | – | – | –
< 0.1 µM | CCOc1cc(-c2ccc(CC(=O)Nc3ccc(OCCO)c(C(F)(F)F)c3)c(F)c2)c[nH]c1=O [Example 13, 2-(4-(5-Ethoxy-6-oxo-1,6-dihydropyridin-3-yl)-2-fluorophenyl)-N-(4-(2-hydroxyethoxy)-3-(trifluoromethyl)phenyl)acetamide] | – | – | –
0.5 to 10 µM | CCOc1cc(-c2ccc(CC(=O)Nc3cnc(CC#N)c(C(F)(F)F)c3)c(F)c2)c[nH]c1=O [Example 14, N-(6-(Cyanomethyl)-5-(trifluoromethyl)pyridin-3-yl)-2-(4-(5-ethoxy-6-oxo-1,6-dihydropyridin-3-yl)-2-fluorophenyl)acetamide hydrochloride] | – | – | –
< 0.1 µM | CCOc1cc(-c2ccc(CC(=O)Nc3ccc(Cl)c(C(F)(F)F)c3)c(F)c2)c[nH]c1=O [Example 16, N-(4-Chloro-3-(trifluoromethyl)phenyl)-2-(4-(5-ethoxy-6-oxo-1,6-dihydropyridin-3-yl)-2-fluorophenyl)acetamide] | – | – | –
0.1 to 0.5 µM | CCOc1cc(-c2ccc(CC(=O)Nc3ccc(Cl)c(Cl)c3)c(F)c2)c[nH]c1=O [Example 18, N-(3,4-Dichlorophenyl)-2-(4-(5-ethoxy-6-oxo-1,6-dihydropyridin-3-yl)-2-fluorophenyl)acetamide] | – | – | –
< 0.1 µM | CCOc1cc(-c2ccc(CC(=O)Nc3cc(C(C)(C)C(F)(F)F)on3)c(F)c2)c[nH]c1=O [Example 19, 2-(4-(5-Ethoxy-6-oxo-1,6-dihydropyridin-3-yl)-2-fluorophenyl)-N-(5-(1,1,1-trifluoro-2-methylpropan-2-yl)isoxazol-3-yl)acetamide] | – | – | –
< 0.1 µM | CCOc1cc(-c2ccc(CC(=O)Nc3ccc(CN4CCN(CC)CC4)c(C(F)(F)F)c3)c(F)c2)c[nH]c1=O [Example 21, 2-(4-(5-Ethoxy-6-oxo-1,6-dihydropyridin-3-yl)-2-fluorophenyl)-N-(4-((4-ethylpiperazin-1-yl)methyl)-3-(trifluoromethyl)phenyl)acetamide, dihydrochloride] | – | < 0.1 µM | –
0.5 to 10 µM | CCOc1cc(-c2ccc(CC(=O)Nc3cc(F)ccc3F)c(F)c2)c[nH]c1=O [Example 22, N-(2,5-Difluorophenyl)-2-(4-(5-ethoxy-6-oxo-1,6-dihydropyridin-3-yl)-2-fluorophenyl)acetamide] | – | – | –
0.1 to 0.5 µM | CCOc1cc(-c2ccc(CC(=O)Nc3ccc(C(N)=O)c(C(F)(F)F)c3)c(F)c2)c[nH]c1=O [Example 23] | – | – | –
< 0.1 µM | CCOc1cc(-c2ccc(CC(=O)Nc3cc(C(F)(F)F)c(F)cc3F)c(F)c2)c[nH]c1=O [Example 24] | – | – | –
< 0.1 µM | CCOc1cc(-c2ccc(CC(=O)Nc3cc(C(F)(F)F)cc(C(F)(F)F)c3)c(F)c2)c[nH]c1=O [Example 25] | – | – | –
< 0.1 µM | CCOc1cc(-c2ccc(CC(=O)Nc3cc(C(C)(C)C(F)(F)F)no3)c(F)c2)c[nH]c1=O [Example 28, 2-(4-(5-Ethoxy-6-oxo-1,6-dihydropyridin-3-yl)-2-fluorophenyl)-N-(3-(1,1,1-trifluoro-2-methylpropan-2-yl)isoxazol-5-yl)acetamide] | – | < 0.1 µM | < 0.1 µM
< 0.1 µM | CCOc1cc(=O)[nH]cc1-c1ccc(CC(=O)Nc2cnc(C(C)(C)CO)c(C(F)(F)F)c2)c(F)c1 [Example 31, 2-(4-(4-Ethoxy-6-oxo-1,6-dihydropyridin-3-yl)-2-fluorophenyl)-N-(6-(1-hydroxy-2-methylpropan-2-yl)-5-(trifluoromethyl)pyridin-3-yl)acetamide] | – | < 0.1 µM | < 0.1 µM
< 0.1 µM | CCOc1cc(=O)[nH]cc1-c1ccc(CC(=O)Nc2ccc(CC(C)(C)CO)c(C(F)(F)F)c2)cc1F [Example 32, 2-(4-(4-Ethoxy-6-oxo-1,6-dihydropyridin-3-yl)-3-fluorophenyl)-N-(4-(3-hydroxy-2,2-dimethylpropyl)-3-(trifluoromethyl)phenyl)acetamide] | – | < 0.1 µM | < 0.1 µM
< 0.1 µM | CCOc1cc(-c2ccc(CC(=O)Nc3cc(OCCN4CCOCC4)cc(C(F)(F)F)c3)c(F)c2)c[nH]c1=O [Example 39, 2-(4-(5-ethoxy-6-oxo-1,6-dihydropyridin-3-yl)-2-fluorophenyl)-N-(3-(2-morpholinoethoxy)-5-(trifluoromethyl)phenyl)acetamide] | – | < 0.1 µM | 0.1 to 0.5 µM
< 0.1 µM | CCOc1cc(-c2ccc(CC(=O)Nc3cc(-c4nn[nH]n4)cc(C(F)(F)F)c3)c(F)c2)c[nH]c1=O [Example 44, N-(3-(2H-tetrazol-5-yl)-5-(trifluoromethyl)phenyl)-2-(4-(5-ethoxy-6-oxo-1,6-dihydropyridin-3-yl)-2-fluorophenyl)acetamide] | – | – | –

SMILES | IC50 [1] | IC50 ([2]; Homo sapiens, TT) | IC50 [3] | IC50 [2, 4]
CCOc1ncc(NC(=O)Cc2ccc(-c3c[nH]c(=O)c(OCC)c3)cc2F)cc1C(F)(F)F [Example 2, N-(6-Ethoxy-5-(trifluoromethyl)pyridin-3-yl)-2-(4-(5-ethoxy-6-oxo-1,6-dihydropyridin-3-yl)-2-fluorophenyl)acetamide hydrochloride] | < 0.1 µM | – | – | –
CCOc1cc(=O)[nH]cc1-c1ccc(CC(=O)Nc2ccc(C#N)c(C(F)(F)F)c2)cc1F [Example 7, N-(4-Cyano-3-(trifluoromethyl)phenyl)-2-(4-(4-ethoxy-6-oxo-1,6-dihydropyridin-3-yl)-3-fluorophenyl)acetamide] | < 0.1 µM | – | – | –
CCOc1cc(-c2ccc(CC(=O)Nc3ccc(C#N)c(C(F)(F)F)c3)c(F)c2)c[nH]c1=O [Example 9, N-(4-Cyano-3-(trifluoro-methyl)phenyl)-2-(4-(5-ethoxy-6-oxo-1,6-dihydro-pyridin-3-yl)-2-fluorophenyl)acetamide] | < 0.1 µM | – | – | –
CCOc1cc(=O)[nH]cc1-c1ccc(CC(=O)Nc2cnc(OCCN(C)C)c(C(F)(F)F)c2)c(F)c1 [Example 10, N-(6-(2-(Dimethylamino)ethoxy)-5-(trifluoromethyl)pyridin-3-yl)-2-(4-(4-ethoxy-6-oxo-1,6-dihydropyridin-3-yl)-2-fluorophenyl)acetamide dihydrochloride] | 0.1 to 0.5 µM | 0.5 to 10 µM | 0.5 to 10 µM | –
CCOc1cc(-c2ccc(CC(=O)Nc3cc(-n4cnc(C)c4)cc(C(F)(F)F)c3)c(F)c2)c[nH]c1=O [Example 11, 2-(4-(5-Ethoxy-6-oxo-1,6-dihydropyridin-3-yl)-2-fluorophenyl)-N-(3-(4-methyl-1H-imidazol-1-yl)-5-(trifluoromethyl)phenyl)acetamide hydrochloride] | < 0.1 µM | – | – | –
CCOc1cc(-c2ccc(CC(=O)Nc3ccc(CN(C)C)c(C(F)(F)F)c3)c(F)c2)c[nH]c1=O [Example 17, N-(4-((Dimethylamino)methyl)-3-(trifluoromethyl)phenyl)-2-(4-(5-ethoxy-6-oxo-1,6-dihydropyridin-3-yl)-2-fluorophenyl)acetamide hydrochloride] | < 0.1 µM | – | – | –
CCOc1cc(-c2ccc(CC(=O)Nc3cc(-n4cc(C)cn4)cc(C(F)(F)F)c3)c(F)c2)c[nH]c1=O [Example 34, 2-(4-(5-ethoxy-6-oxo-1,6-dihydropyridin-3-yl)-2-fluorophenyl)-N-(3-(4-methyl-1H-pyrazol-1-yl)-5-(trifluoromethyl)phenyl)acetamide hydrochloride] | < 0.1 µM | 0.1 to 0.5 µM | 0.1 to 0.5 µM | –
CCOc1cc(-c2ccc(CC(=O)Nc3cc(-n4ccc(C)n4)cc(C(F)(F)F)c3)c(F)c2)c[nH]c1=O [Example 35, 2-(4-(5-ethoxy-6-oxo-1,6-dihydropyridin-3-yl)-2-fluorophenyl)-N-(3-(3-methyl-1H-pyrazol-1-yl)-5-(trifluoromethyl)phenyl)acetamide hydrochloride] | < 0.1 µM | 0.1 to 0.5 µM | < 0.1 µM | –
CCOc1cc(-c2ccc(CC(=O)Nc3cc(-c4cn[nH]c4)cc(C(F)(F)F)c3)c(F)c2)c[nH]c1=O [Example 36, N-(3-(1H-pyrazol-4-yl)-5-(trifluoromethyl)phenyl)-2-(4-(5-ethoxy-6-oxo-1,6-dihydropyridin-3-yl)-2-fluorophenyl)acetamide hydrochloride] | < 0.1 µM | 0.1 to 0.5 µM | < 0.1 µM | –
CCOc1cc(=O)[nH]cc1-c1ccc(CC(=O)Nc2ccc(C(C)(C)C(F)(F)F)nc2)c(F)c1 [Example 37, 2-(4-(4-ethoxy-6-oxo-1,6-dihydropyridin-3-yl)-2-fluorophenyl)-N-(6-(1,1,1-trifluoro-2-methylpropan-2-yl)pyridin-3-yl)acetamide hydrochloride] | < 0.1 µM | 0.5 to 10 µM | 0.1 to 0.5 µM | –
